Source: patent publication US20110142866A1, “PEPTIDE ANALOGUES AND CONJUGATES THEREOF” (Eldrug S.A., priority 2007, published 2011)
“Also recorded” adds a separate entry of the source.

How the values were obtained:
[1] = tested on: IL-10 secretion by T cells; experiment: IL-10 ELISpot of spleen cells from immunized mice; type: in vivo, SJL/J mice; parameters: key to IL-10: −: negative; +/−: very weak; +: weak; ++: moderate; +++: strong; conditions: for IL-10: Table 2, peptide analogues conjugated to reduced mannan-KLH; for IL-10 production by T cells (in words): peptide conjugated to reduced mannan, two injections
Description: Female 6-8 week old SJL/J mice used in all experiments, were purchased from Walter and Eliza Hall Institute (VIC Australia) and housed at the Biological Research Laboratory at Burnet Institute at Austin, Heidelberg, Australia. SJL/J mice were immunized twice on days 0, 14 intradermally (base of tail) with 50 μg MBP83-99 peptide analogue-KLH-reduced mannan.
ELISpot analyses specific T cell responses to antigens by detecting the secretion of specific cytokines. Spleen cells from immunized SJL/J mice were isolated 14 days after immunization and assessed by ELISpot for IFN-γ, IL-4 or IL-10 secretion by T cells. IFN-γ ELISpot assay was performed on MultiScreen-IP Filter Plate (MAIP S4510) with hydrophobic PVDF filters (Millipore, UK) while IL-4 and IL-10 ELISpot was performed on MultiScreen-HA Filter Plate (MAHA S4510) with mixed cellulose esters filters (Millipore, UK). MAIP S4510 plates were pre-wet with 50 μl of 70% ethanol, washed 5 times with 200 μl sterile PBS and coated with 70 μl of 5 μg/ml anti-IFN-γ capture antibody, AN18 (Mabtech, Australia) in PBS and left to incubate at 4° C. O/N. While 70 μl of 5 μg/ml anti-IL-4 and anti-IL-10 capture antibody (Mabtech, Australia) was added directly to MAHA S4510 plates and incubated at 4° C. O/N without 70% ethanol treatment. Following 5 washes with PBS, plates were blocked by adding 200 μl of culture media (supplemented with 2.5% FCS) and incubated for 2 hours at 37° C. The blocking media was discarded and 10 μg/ml recall peptides (MBP83-99 peptide analogues not conjugated to KLH-reduced mannan) were added into each defined well. Con A (1.0 μg/ml; IL-4 and IFN-γ) or LPS (1.0 μg/ml; IL-10) were used as an internal positive controls and no peptide was used as negative control. Triplicate wells were set up for each condition. 5×10^5 spleen cells in 100 μl culture media were seeded into each well and incubated for 18 hours for IFN-γ, 24 hours for IL-4 and 48 hours for IL-10 at 37° C. Plates were washed 5 times PBS/0.05% Tween 20 and 5 times PBS and incubated for 2 hours at RT with anti-murine IFN-γ, IL-4 or IL-10 monoclonal antibody-biotin. Plates were washed and streptavidin-ALP was added at 1.0 μg/ml and incubated for 2.0 hours at RT. Spots of activity were detected using a colorimetric AP kit (Biorad, Hercules, Calif. USA) and counted using an AID ELISpot plate reader (Autoimmun Diagnostika GmbH, Germany). Data are presented as mean spot forming units (sfu) per 0.5×10^6 cells +/−standard error of the mean (SEM).

MOG35-55 induced EAE [2] = experiment: Chronic MOG35-55 EAE, clinical evaluation; type: in vivo, C57BL/6 mice; conditions: for overall clinical effect on MOG35-55 EAE: co-injection at disease induction at 1:1 ratio
MOG35-55 induced EAE [3] = experiment: MOG35-55 EAE, spinal cord histopathology; type: in vivo, C57BL/6 mice
Description: On day 17 (acute phase of EAE) and day 46 post-EAE-induction (chronic phase of EAE) animals were subjected to transcardial perfusion with 4% paraformaldehyde in PBS. Brains and spinal cords were removed, post-fixed in the same fixative for approximately 20 hours, routinely processed for paraffin embedding and sectioned at […]. Sections from animals of acute and chronic phases of the disease, were then stained using the following methods: a) a modified Bielschowsky silver impregnation staining method combined with haematoxylin, for the simultaneous evaluation of axonal injury, axonal loss and inflammatory processes in EAE as previously described in detail [Lourbopoulos et, al., 2007]; b) Luxol fast blue staining counterstained with Nuclear fast Red for the detection of demyelinating areas within the CNS of animals, using routine histopathological protocols. Pathological evaluation was performed under a light microscope (Olympus Axioplan-2) by two blinded investigators and photos were taken using a CCD camera (Nikon). Five randomly selected longitudinal sections per tissue (brains and spinal cords) were evaluated as follows: for each animal, each section was evaluated under 20× or 40× optical fields (depending on the object of study) so as to cover the entire area of the section. […] Depending on the object of interest the following scales were used to perform the evaluation: (a) For axonal injury (AI), the following scale was used: 0=no AI, 1+=scattered dystrophic injured axons without any spheroid or ovoid, 2+=mild AI with the presence of at least one spheroid or ovoid, 3+=moderate AI, 4+=severe AI; generally injured axons were defined and identified as spheroids and ovoids (which represent axonotmesis), and dilated (dystrophic) axons which represent injured axons not yet being cut. (b) For axonal loss (AL): 0=normal axonal density, 1+=<25% AL, 2+=mild AL (26-50%), 3+=moderate to severe (51-75%) AL, 4+=severe AL (>75%); various degrees of decreased density of axons was attributed to axonal loss and evaluated accordingly. (c) For infiltrations: number of infiltrating cells per optical field and number of infiltrating cells per infiltration. (d) Demyelination was evaluated under 40× optical fields; using a prefrontal grid, we measured the area of demyelination and the total area of white matter in each optical field and then subtracted the % of demyelination present in each optical field.

Stability to proteolysis = type: in vitro ADME; conditions: compared to linear counterparts

E N P V V H F F Y N I V T P R T P (ENPVVHFFYNIVTPRTP) [[Y^91]MBP83-99]
IL-10 [1]: ++
IL-10 production by T cells (in words) [1]: moderate levels

CC[C@H](C)[C@@H]1NC(=O)[C@H](CC(N)=O)NC(=O)[C@H](CCCCN)NC(=O)[C@H](Cc2ccccc2)NC(=O)[C@H](Cc2ccccc2)NC(=O)[C@H](Cc2c[nH]cn2)NC(=O)[C@H](C(C)C)NC(=O)[C@H](C(C)C)NC(=O)[C@@H]2CCCN2C(=O)[C@H](CC(N)=O)NC(=O)[C@H](CCC(=O)O)NC(=O)[C@@H]2CCCN2C(=O)[C@H]([C@@H](C)O)NC(=O)[C@H](CCCNC(=N)N)NC(=O)[C@@H]2CCCN2C(=O)[C@H]([C@@H](C)O)NC(=O)[C@H](C(C)C)NC1=O [cyclo(83-99)MBP83-99, cyclo(83-99)E N P V V H F F K N I V T P R T P]
mean day of disease onset (MOG35-55 induced EAE [2]; acute phase experiment): 12.00±0.81
mean clinical score vs control (MOG35-55 induced EAE [2]; acute phase, days 15, 16 and 17): statistical significant different
mean Areas Under the Curve (mAUC) (MOG35-55 induced EAE [2]; acute phase, sacrifice day 17, 300 μg co-injected 1:1 with MOG35-55): 13.32±2.55
mean day of disease onset (MOG35-55 induced EAE [2]; chronic phase experiment): 17.00±11.74
Mean Maximal Clinical Scores (MMS) (MOG35-55 induced EAE [2]; chronic phase, day 46): 2.375±1.45
mean Areas Under the Curve (mAUC) (MOG35-55 induced EAE [2]; chronic phase, day 46): 51.08±36.58
mean clinical score vs control (MOG35-55 induced EAE [2]; chronic phase, entire observation period): lower mean clinical score
overall clinical effect on MOG35-55 EAE (MOG35-55 induced EAE [2]): mild beneficial effect
overall clinical effect on MOG35-55 EAE (MOG35-55 induced EAE [2]; listed as cyclic MBP83-99): mild preventive benefit
demyelination of the white matter of spinal cords (MOG35-55 induced EAE [3]; acute phase): 9.58±10.5%
effect on axonal injury vs control (MOG35-55 induced EAE [3]; acute phase): mild but statistical significant beneficial effect
effect on axonal loss vs control (MOG35-55 induced EAE [3]; acute phase): mild effect
infiltrating cells per optical field (MOG35-55 induced EAE [3]; acute phase): 290.8±277.7
inflammatory cells per infiltration (MOG35-55 induced EAE [3]; acute phase): 53.72±62.0
axonal injury per 20x field, % within GROUP (MOG35-55 induced EAE [3]; acute phase, score 0): 14.3%
axonal loss per 20x field, % within GROUP (MOG35-55 induced EAE [3]; acute phase, score 0): 16.5%
axonal injury per 20x field, % within GROUP (MOG35-55 induced EAE [3]; acute phase, score 1+): 45.1%
axonal loss per 20x field, % within GROUP (MOG35-55 induced EAE [3]; acute phase, score 1+): 36.1%
axonal injury per 20x field, % within GROUP (MOG35-55 induced EAE [3]; acute phase, score 2+): 22.3%
axonal loss per 20x field, % within GROUP (MOG35-55 induced EAE [3]; acute phase, score 2+): 31.6%
axonal injury per 20x field, % within GROUP (MOG35-55 induced EAE [3]; acute phase, score 3+): 11.3%
axonal loss per 20x field, % within GROUP (MOG35-55 induced EAE [3]; acute phase, score 3+): 12.0%
axonal injury per 20x field, % within GROUP (MOG35-55 induced EAE [3]; acute phase, score 4+): 6.0%
axonal loss per 20x field, % within GROUP (MOG35-55 induced EAE [3]; acute phase, score 4+): 3.8%
axonal injury vs control (MOG35-55 induced EAE [3]; chronic phase): not different
axonal loss vs control (MOG35-55 induced EAE [3]; chronic phase): less
demyelination of the white matter of spinal cords (MOG35-55 induced EAE [3]; chronic phase): 7.65±11.4%
infiltrating cells per optical field (MOG35-55 induced EAE [3]; chronic phase): 10.71±39.0
inflammatory cells per infiltration (MOG35-55 induced EAE [3]; chronic phase): 6.0±15.8
axonal injury per 20x field, % within GROUP (MOG35-55 induced EAE [3]; chronic phase, score 0): 49.3%
axonal loss per 20x field, % within GROUP (MOG35-55 induced EAE [3]; chronic phase, score 0): 51.4%
axonal injury per 20x field, % within GROUP (MOG35-55 induced EAE [3]; chronic phase, score 1+): 29.0%
axonal loss per 20x field, % within GROUP (MOG35-55 induced EAE [3]; chronic phase, score 1+): 26.8%
axonal injury per 20x field, % within GROUP (MOG35-55 induced EAE [3]; chronic phase, score 2+): 13.0%
axonal loss per 20x field, % within GROUP (MOG35-55 induced EAE [3]; chronic phase, score 2+): 10.9%
axonal injury per 20x field, % within GROUP (MOG35-55 induced EAE [3]; chronic phase, score 3+): 8.0%
axonal loss per 20x field, % within GROUP (MOG35-55 induced EAE [3]; chronic phase, score 3+): 10.1%
axonal injury per 20x field, % within GROUP (MOG35-55 induced EAE [3]; chronic phase, score 4+): 0.7%
axonal loss per 20x field, % within GROUP (MOG35-55 induced EAE [3]; chronic phase, score 4+): 0.7%
stability to the proteolysis (Stability to proteolysis): increases stability to the proteolysis

E N P V V H F F F N I V T P R T P (ENPVVHFFFNIVTPRTP) [[F^91]MBP83-99]
IL-10 [1]: ++
IL-10 production by T cells (in words) [1]: moderate levels; also recorded: induced
